Assay [1] has as its target Methionyl-tRNA synthetase (Enterococcus faecalis). As to the kind of experiment: Inhibition of Enterococci faecalis methionyl-tRNA synthetase (EfMetRS).
Assay [2] addresses Methionyl-tRNA synthetase (Staphylococcus aureus). The assay can be described thus: Inhibition of Staphylococcus aureus methionyl-tRNA synthetase (SaMetRS).
For assay [3] the target is unchanged. The assay is described as above. The source holds these as a separate data set.

Structures are written as SMILES.

Consider `NC(=O)[C@H](Cc1ccc(O)cc1)NC(=O)[C@@H]1CCCN1/C=C1\N=C(c2ccc(Cl)cc2Cl)OC1=O` [(S)-1-[2-(2,4-Dichloro-phenyl)-5-oxo-oxazol-(4Z)-ylidenemethyl]-pyrrolidine-2-carboxylic acid [(S)-1-carbamoyl-2-(4-hydroxy-phenyl)-ethyl]-amide], for which the results for the IC50 in assay [1] and in assay [2] were 14000 nM and 680 nM, respectively. Consider `NC(=O)[C@H](Cc1ccc(O)cc1)NC(=O)[C@@H]1CCN1/C=C1\N=C(c2ccc(Br)cc2)OC1=O` [(S)-1-[2-(4-Bromo-phenyl)-5-oxo-oxazol-(4Z)-ylidenemethyl]-azetidine-2-carboxylic acid [(S)-1-carbamoyl-2-(4-hydroxy-phenyl)-ethyl]-amide], for which the IC50 worked out at 1400 nM in assay [1] and 510 nM in assay [2]. Turning to `NC(=O)[C@H](Cc1ccc(O)cc1)NC(=O)[C@@H]1CCCN1/C=C1\N=C(c2ccc(Br)cc2)OC1=O` [(S)-1-[2-(4-Bromo-phenyl)-5-oxo-oxazol-(4Z)-ylidenemethyl]-pyrrolidine-2-carboxylic acid [(S)-1-carbamoyl-2-(4-hydroxy-phenyl)-ethyl]-amide], the results for the IC50 in assay [1] and in assay [3] were 48000 nM and 1100 nM, respectively. In the case of `CCC/C(=C1/N=C(c2ccc(Br)cc2)OC1=O)N1CC[C@H]1C(=O)N[C@@H](Cc1ccc(O)cc1)C(N)=O` [(S)-1-{1-[2-(4-Bromo-phenyl)-5-oxo-oxazol-(4Z)-ylidene]-butyl}-azetidine-2-carboxylic acid [(S)-1-carbamoyl-2-(4-hydroxy-phenyl)-ethyl]-amide], the IC50 in assay [2] was determined as 87 nM. As to `CCC/C(=C1/N=C(c2ccc(Br)cc2)OC1=O)N1CCC[C@H]1C(=O)N[C@@H](Cc1ccc(O)cc1)C(N)=O` [(S)-1-{1-[2-(4-Bromo-phenyl)-5-oxo-oxazol-(4Z)-ylidene]-butyl}-pyrrolidine-2-carboxylic acid [(S)-1-carbamoyl-2-(4-hydroxy-phenyl)-ethyl]-amide], the IC50 was 3110 nM in assay [1] and 760 nM in assay [3]. As for `CC/C(=C1/N=C(c2ccc(Br)cc2)OC1=O)N1CCC[C@H]1C(=O)N[C@@H](Cc1ccc(O)cc1)C(N)=O` [(S)-1-{1-[2-(4-Bromo-phenyl)-5-oxo-oxazol-(4Z)-ylidene]-propyl}-pyrrolidine-2-carboxylic acid [(S)-1-carbamoyl-2-(4-hydroxy-phenyl)-ethyl]-amide], the IC50 amounted to 5930 nM in assay [1] and 850 nM in assay [2].

What is called IC50 is the midpoint of a concentration-inhibition curve. High values mean lower potency, low ones higher potency.

Source of the values: BindingDB's records for doi:10.1016/j.bmcl.2004.01.094 (Arqule, 2004).
